Reference: patent US12077503B2, “Substituted cyclic amides and their use as herbicides” (FMC CORPORATION, priority 2015, dated 2024)

What was measured:
Type in all cases: in vivo
[1] = tested on: corn (Zea mays); test: Test A postemergence; details: Zea mays, post-emergence, 240 h, postemergence; for plant injury at 125 g/ha: 125 g ai/ha, visual injury vs untreated controls after approx. 10 d, 0 = no effect, 100 = complete control, read-out: Corn plant response rating (0 to 100 scale); for plant injury at 500 g/ha: 500 g ai/ha, 0 to 100 scale, 0 is no effect, 100 is complete control, read-out: Corn plant response rating
Summary of the method: (§1)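 Treatment is preemergence as a directed soil spray after planting, or postemergence at the one- to two-leaf stage, with test chemical in a non-phytotoxic solvent mixture plus surfactant. Plants stay in the greenhouse about 10 d before visual injury scoring on a 0 to 100 scale versus untreated controls.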

[2] = tested on: pigweed (Amaranthus retroflexus); test: Test A postemergence; details: Amaranthus retroflexus, post-emergence, 240 h, postemergence; for pest or weed control at 125 g/ha: 125 g ai/ha, visual injury vs untreated controls after approx. 10 d, 0 = no effect, 100 = complete control, read-out: Pigweed plant response rating (0 to 100 scale); for pest or weed control at 500 g/ha: 500 g ai/ha, 0 to 100 scale, 0 is no effect, 100 is complete control, read-out: Pigweed plant response rating
Summary of the method: as §1

[3] = tested on: wheat (Triticum aestivum); test: Test A postemergence; details: Triticum aestivum, post-emergence, 240 h, postemergence; for plant injury at 125 g/ha: 125 g ai/ha, visual injury vs untreated controls after approx. 10 d, 0 = no effect, 100 = complete control, read-out: Wheat plant response rating (0 to 100 scale); for plant injury at 500 g/ha: 500 g ai/ha, 0 to 100 scale, 0 is no effect, 100 is complete control, read-out: Wheat plant response rating
Summary of the method: as §1

[4] = tested on: Galium (catchweed bedstraw, Galium aparine); test: Test A postemergence; details: Galium, post-emergence, 240 h, postemergence; for pest or weed control at 125 g/ha: 125 g ai/ha, visual injury vs untreated controls after approx. 10 d, 0 = no effect, 100 = complete control, read-out: Galium plant response rating (0 to 100 scale); for pest or weed control at 500 g/ha: 500 g ai/ha, 0 to 100 scale, 0 is no effect, 100 is complete control, read-out: Galium plant response rating
Summary of the method: as §1

[5] = tested on: Kochia (Kochia scoparia); test: Test A postemergence; details: Bassia scoparia, post-emergence, 240 h, postemergence; for pest or weed control at 125 g/ha: 125 g ai/ha, visual injury vs untreated controls after approx. 10 d, 0 = no effect, 100 = complete control, read-out: Kochia plant response rating (0 to 100 scale); for pest or weed control at 500 g/ha: 500 g ai/ha, 0 to 100 scale, 0 is no effect, 100 is complete control, read-out: Kochia plant response rating
Summary of the method: as §1

[6] = tested on: ryegrass, Italian (Italian ryegrass, Lolium multiflorum); test: Test A postemergence; details: Lolium multiflorum, post-emergence, 240 h, postemergence; for pest or weed control at 125 g/ha: 125 g ai/ha, visual injury vs untreated controls after approx. 10 d, 0 = no effect, 100 = complete control, read-out: Ryegrass, Italian plant response rating (0 to 100 scale); for pest or weed control at 500 g/ha: 500 g ai/ha, 0 to 100 scale, 0 is no effect, 100 is complete control, read-out: Ryegrass, Italian plant response rating
Summary of the method: as §1

[7] = tested on: giant foxtail (Setaria faberii); test: Test A postemergence; details: Setaria faberi, post-emergence, 240 h, postemergence; for pest or weed control at 125 g/ha: 125 g ai/ha, visual injury vs untreated controls after approx. 10 d, 0 = no effect, 100 = complete control, read-out: Foxtail, Giant plant response rating (0 to 100 scale); for pest or weed control at 500 g/ha: 500 g ai/ha, 0 to 100 scale, 0 is no effect, 100 is complete control, read-out: Foxtail, Giant plant response rating
Summary of the method: as §1

[8] = tested on: blackgrass (Alopecurus myosuroides); test: Test A postemergence; details: Alopecurus myosuroides, post-emergence, 240 h, postemergence; for pest or weed control at 125 g/ha: 125 g ai/ha, visual injury vs untreated controls after approx. 10 d, 0 = no effect, 100 = complete control, read-out: Blackgrass plant response rating (0 to 100 scale); for pest or weed control at 500 g/ha: 500 g ai/ha, 0 to 100 scale, 0 is no effect, 100 is complete control, read-out: Blackgrass plant response rating
Summary of the method: as §1

[9] = tested on: barnyardgrass (Echinochloa crus-galli); test: Test A postemergence; details: Echinochloa crus-galli, post-emergence, 240 h, postemergence; for pest or weed control at 125 g/ha: 125 g ai/ha, visual injury vs untreated controls after approx. 10 d, 0 = no effect, 100 = complete control, read-out: Barnyardgrass plant response rating (0 to 100 scale); for pest or weed control at 500 g/ha: 500 g ai/ha, 0 to 100 scale, 0 is no effect, 100 is complete control, read-out: Barnyardgrass plant response rating
Summary of the method: as §1

[10] = tested on: ragweed (common ragweed, Ambrosia elatior); test: Test A postemergence; details: Ambrosia artemisiifolia, post-emergence, 240 h, postemergence; for pest or weed control at 125 g/ha: 125 g ai/ha, visual injury vs untreated controls after approx. 10 d, 0 = no effect, 100 = complete control, read-out: Ragweed plant response rating (0 to 100 scale); for pest or weed control at 500 g/ha: 500 g ai/ha, 0 to 100 scale, 0 is no effect, 100 is complete control, read-out: Ragweed plant response rating
Summary of the method: as §1

[11] = tested on: pigweed (Amaranthus retroflexus); test: Test A preemergence; details: Amaranthus retroflexus, pre-emergence, 240 h, preemergence, 0 to 100 scale where 0 is no effect and 100 is complete control, read-out: Pigweed plant response rating; for pest or weed control at 125 g/ha: 125 g ai/ha; for pest or weed control at 500 g/ha: 500 g ai/ha
[12] = tested on: Kochia (Kochia scoparia); test: Test A preemergence; details: Bassia scoparia, pre-emergence, 240 h, preemergence, 0 to 100 scale where 0 is no effect and 100 is complete control, read-out: Kochia plant response rating; for pest or weed control at 125 g/ha: 125 g ai/ha; for pest or weed control at 500 g/ha: 500 g ai/ha
Summary of the method: as §1

[13] = tested on: ryegrass, Italian (Italian ryegrass, Lolium multiflorum); test: Test A preemergence; details: Lolium multiflorum, pre-emergence, 240 h, preemergence, 0 to 100 scale where 0 is no effect and 100 is complete control, read-out: Ryegrass, Italian plant response rating; for pest or weed control at 125 g/ha: 125 g ai/ha; for pest or weed control at 500 g/ha: 500 g ai/ha
Summary of the method: as §1

[14] = tested on: giant foxtail (Setaria faberii); test: Test A preemergence; details: Setaria faberi, pre-emergence, 240 h, preemergence, 0 to 100 scale where 0 is no effect and 100 is complete control, read-out: Foxtail, Giant plant response rating; for pest or weed control at 125 g/ha: 125 g ai/ha; for pest or weed control at 500 g/ha: 500 g ai/ha
Summary of the method: as §1

[15] = tested on: barnyardgrass (Echinochloa crus-galli); test: Test A preemergence; details: Echinochloa crus-galli, pre-emergence, 240 h, preemergence, 0 to 100 scale where 0 is no effect and 100 is complete control, read-out: Barnyardgrass plant response rating; for pest or weed control at 125 g/ha: 125 g ai/ha; for pest or weed control at 500 g/ha: 500 g ai/ha
Summary of the method: as §1

[16] = tested on: ragweed (common ragweed, Ambrosia elatior); test: Test A preemergence; details: Ambrosia artemisiifolia, pre-emergence, 240 h, preemergence, 0 to 100 scale where 0 is no effect and 100 is complete control, read-out: Ragweed plant response rating; for pest or weed control at 125 g/ha: 125 g ai/ha; for pest or weed control at 500 g/ha: 500 g ai/ha
Summary of the method: as §1

[17] = visual injury rating, approximately 10 d

Q: What does the source list for Cc1cc([C@H]2CN(C)C(=O)[C@@H]2C(=O)Nc2ccccc2F)on1 [Compound 1195]?
A: plant injury at 125 g/ha [1]: 0%; plant injury at 500 g/ha [1]: 0%; pest or weed control at 125 g/ha [2]: 0%; pest or weed control at 500 g/ha [2]: 0%; plant injury at 125 g/ha [3]: 0%; plant injury at 500 g/ha [3]: 0%; pest or weed control at 125 g/ha [4]: 0%; pest or weed control at 500 g/ha [4]: 0%; pest or weed control at 125 g/ha [5]: 0%; pest or weed control at 500 g/ha [5]: 0%; pest or weed control at 125 g/ha [6]: 0%; pest or weed control at 500 g/ha [6]: 0%; pest or weed control at 125 g/ha [7]: 0%; pest or weed control at 500 g/ha [7]: 20%; pest or weed control at 125 g/ha [8]: 0%; pest or weed control at 500 g/ha [8]: 0%; pest or weed control at 125 g/ha [9]: 0%; pest or weed control at 500 g/ha [9]: 20%; pest or weed control at 125 g/ha [10]: 0%; pest or weed control at 500 g/ha [10]: 0%; pest or weed control at 125 g/ha [11, 17]: 0%; pest or weed control at 500 g/ha [11]: 0%; pest or weed control at 125 g/ha [12, 17]: 0%; pest or weed control at 500 g/ha [12]: 0%; pest or weed control at 125 g/ha [13, 17]: 0%; pest or weed control at 500 g/ha [13]: 0%; pest or weed control at 125 g/ha [14, 17]: 0%; pest or weed control at 500 g/ha [14]: 40%; pest or weed control at 125 g/ha [15, 17]: 0%; pest or weed control at 500 g/ha [15]: 80%; pest or weed control at 125 g/ha [16, 17]: 0%; pest or weed control at 500 g/ha [16]: 0%

Q: How did the plant injury at 125 g/ha [1] turn out when CCc1cc([C@H]2CNC(=O)[C@@H]2C(=O)Nc2cccc(F)c2F)cs1 [Compound 1155] was run?
A: The plant injury at 125 g/ha was 20%.

Q: What about the plant injury at 500 g/ha [1] of the same molecule?
A: Its plant injury at 500 g/ha is 30%.

Q: And the pest or weed control at 125 g/ha [2]?
A: Its pest or weed control at 125 g/ha is 0%.

Q: And the pest or weed control at 500 g/ha [2]?
A: Its pest or weed control at 500 g/ha is 0%.

Q: What about the plant injury at 125 g/ha [3] of the same molecule?
A: The plant injury at 125 g/ha was 20%.

Q: What about the plant injury at 500 g/ha [3] of the same molecule?
A: The plant injury at 500 g/ha was 50%.

Q: What about the pest or weed control at 125 g/ha [4] of the same molecule?
A: The pest or weed control at 125 g/ha was 40%.

Q: And the pest or weed control at 500 g/ha [4]?
A: The pest or weed control at 500 g/ha was 60%.

Q: What about the pest or weed control at 125 g/ha [5] of the same molecule?
A: Its pest or weed control at 125 g/ha is 0%.

Q: And the pest or weed control at 500 g/ha [5]?
A: The pest or weed control at 500 g/ha was 0%.

Q: And the pest or weed control at 125 g/ha [6]?
A: Its pest or weed control at 125 g/ha is 0%.

Q: What about the pest or weed control at 500 g/ha [6] of the same molecule?
A: The pest or weed control at 500 g/ha was 20%.

Q: And the pest or weed control at 125 g/ha [7]?
A: Its pest or weed control at 125 g/ha is 30%.

Q: And the pest or weed control at 500 g/ha [7]?
A: Its pest or weed control at 500 g/ha is 70%.

Q: What about the pest or weed control at 125 g/ha [8] of the same molecule?
A: Its pest or weed control at 125 g/ha is 0%.

Q: What about the pest or weed control at 500 g/ha [8] of the same molecule?
A: The pest or weed control at 500 g/ha was 0%.

Q: What about the pest or weed control at 125 g/ha [9] of the same molecule?
A: Its pest or weed control at 125 g/ha is 80%.

Q: What about the pest or weed control at 500 g/ha [9] of the same molecule?
A: The pest or weed control at 500 g/ha was 90%.

Q: And the pest or weed control at 125 g/ha [10]?
A: The pest or weed control at 125 g/ha was 0%.

Q: What about the pest or weed control at 500 g/ha [10] of the same molecule?
A: The pest or weed control at 500 g/ha was 40%.

Q: What about the pest or weed control at 125 g/ha ([11]; approx. 10 d) of the same molecule?
A: The pest or weed control at 125 g/ha was 0%.

Q: What about the pest or weed control at 500 g/ha [11] of the same molecule?
A: The pest or weed control at 500 g/ha was 30%.

Q: What about the pest or weed control at 125 g/ha ([12]; approx. 10 d) of the same molecule?
A: The pest or weed control at 125 g/ha was 60%.

Q: What about the pest or weed control at 500 g/ha [12] of the same molecule?
A: Its pest or weed control at 500 g/ha is 90%.

Q: And the pest or weed control at 125 g/ha ([13]; approx. 10 d)?
A: The pest or weed control at 125 g/ha was 0%.

Q: What about the pest or weed control at 500 g/ha [13] of the same molecule?
A: The pest or weed control at 500 g/ha was 30%.

Q: And the pest or weed control at 125 g/ha ([14]; approx. 10 d)?
A: Its pest or weed control at 125 g/ha is 70%.

Q: And the pest or weed control at 500 g/ha [14]?
A: The pest or weed control at 500 g/ha was 90%.

Q: And the pest or weed control at 125 g/ha ([15]; approx. 10 d)?
A: Its pest or weed control at 125 g/ha is 90%.

Q: And the pest or weed control at 500 g/ha [15]?
A: Its pest or weed control at 500 g/ha is 100%.

Q: What about the pest or weed control at 125 g/ha ([16]; approx. 10 d) of the same molecule?
A: Its pest or weed control at 125 g/ha is 40%.

Q: What about the pest or weed control at 500 g/ha [16] of the same molecule?
A: Its pest or weed control at 500 g/ha is 80%.
